target: T1, human CXCR3 (N-delta 4) (Homo sapiens, UniProt P49682); experiment: Human CXCR3 (N-delta 4) Scintillation Proximity Assay (SPA), [125I] IP-10 binding; details: Ba/F3-hCXCR3 (N-delta 4) membranes, 25 pM [125I] IP-10; read-out: IC50 value
T1 construct: CD8 leader (N); Flag tag (N); expressed in transfected cells; host or cells: mouse pro-B Ba/F3 cells, stably transfected with pME18Sneo-hCXCR3 (N-delta 4); membrane preparation
T1 sequence (P49682 5-368 limits assumed): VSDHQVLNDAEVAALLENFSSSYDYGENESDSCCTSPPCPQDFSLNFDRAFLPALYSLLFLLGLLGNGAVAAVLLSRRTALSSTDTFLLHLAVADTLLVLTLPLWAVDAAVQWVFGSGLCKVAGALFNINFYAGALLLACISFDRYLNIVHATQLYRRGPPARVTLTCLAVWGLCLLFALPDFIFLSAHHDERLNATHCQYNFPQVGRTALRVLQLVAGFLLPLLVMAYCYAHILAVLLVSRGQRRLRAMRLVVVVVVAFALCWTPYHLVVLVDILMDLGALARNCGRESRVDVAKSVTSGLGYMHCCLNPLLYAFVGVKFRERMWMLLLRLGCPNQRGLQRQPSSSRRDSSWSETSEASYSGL
From the text: The inventive compounds can readily be evaluated to determine activity at The CXCR3 receptors by known methods, such as, for example, Development of Human CXCR3 (N-delta 4) Binding Assay.
Cloning and Expression of Human CXCR3 (N-delta 4):
The DNA encoding human CXCR3 was cloned by PCR using human genomic DNA (Promega, Madison, Wis.) as a template. The PCR primers were designed based on the published sequence of human orphan receptor GPR9 (1) with incorporated restriction sites, a Kozak consensus sequence, CD8 leader and Flag tag. The PCR product was subcloned into the mammalian expression vector pME18Sneo, a derivative of the SR-alpha expression vector (designated as pME18Sneo-hCXCR3 (N-delta 4).
IL-3-dependent mouse pro-B cells Ba/F3 were transfected by electroporation in 0.4 ml Dulbecco's PBS containing 4×10^6 cells with 20 μg of pME18Sneo-hCXCR3 (N-delta 4) plasmid DNA. Cells were pulsed at 400 Volts, 100 OHMs, 960 μFd. The transfected cells were under selection with 1 mg/ml G418 (Life Technologies, Gaithersburg, Md.). G418-resistant Ba/F3 clones were screened for CXCR3 expression by specific binding of [^125I] IP-10 (NEN Life Science Products, Boston, Mass.).
Preparation of Ba/F3-hCXCR3 (N-delta 4) Membranes:
Ba/F3 cells expressing human CXCR3 (N-delta 4) were pelleted and resuspended in the lysis buffer containing 10 mM HEPES, pH 7.5 and Complete® protease inhibitors (1 tablet per 100 ml) (Boehringer Mannheim, Indianapolis, Ind.) at a cell density of 20×10^6 cells per ml. After 5 minutes incubation on ice, cells were transferred to 4639 cell disruption bomb (Parr Instrument, Moline, Ill.) and applied with 1,500 psi of nitrogen for 30 minutes on ice. Large cellular debris was removed by centrifugation at 1,000×g. Cell membrane in the supernatant was sedimented at 100,000×g. The membrane was resuspended in the lysis buffer supplemented with 10% sucrose and stored at −80° C. Total protein concentration of the membrane was determined by BCA method from Pierce (Rockford, Ill.).
Human CXCR3 (N-delta 4) Scintillation Proximity Assay (SPA):
For each assay point, 2 μg of membrane was preincubated for 1 hr with 300 μg wheat germ agglutinin (WGA) coated SPA beads (Amersham, Arlington Heights, Ill.) in the binding buffer (50 mM HEPES, 1 mM CaCl2, 5 mM MgCl2, 125 mM NaCl, 0.002% NaN3, 1.0% BSA) at room temperature. The beads were spun down, washed once, resuspended in the binding buffer and transferred to a 96-well Isoplate (Wallac, Gaithersburg, Md.). 25 pM of [^125I] IP-10 with tested compounds in a series of titration were added to start the reaction. After 3 hr reaction at room temperature, the amount of [^125I] IP-10 bound to the SPA beads was determined with a Wallac 1450 Microbeta counter.
The Ki values for the various example compounds of the present invention are given in the afore-mentioned Table 1. From these values, it would be apparent to the skilled artisan that the compounds of the invention have excellent utility CXCR3 antagonists.

IC50 [nM] | SMILES
0.2 | CC[C@H]1CN(c2nc(N)c(-c3nnc(C)o3)nc2Cl)CCN1C1CCN(Cc2ccc(Cl)cc2/C(N)=N\O)CC1 [Compound 1]

same assay, conditions: IC50 rating; Ba/F3-hCXCR3 (N-delta 4) membranes, 25 pM [125I] IP-10; read-out: IC50

SMILES | IC50 [nM]
CC[C@H]1CN(c2ncc(-c3nnc(N)[nH]3)nc2Cl)CCN1C1CCN(C(=O)c2ccc(Cl)cc2)CC1 [Compound 66] | < 25
CC[C@H]1CN(c2ncc(-c3nnc(C)[nH]3)nc2Cl)CCN1C1CCN(C(=O)c2ccc(Cl)cc2)CC1 [Compound 51] | < 25
CC[C@H]1CN(c2nc(N)c(-c3nnc(CO)o3)nc2Cl)CCN1C1CCN(C(=O)c2ccc(Cl)nc2N)CC1 [Compound 25] | < 25
CC[C@H]1CN(c2nc(N)c(-c3nnc(CO)o3)nc2Cl)CCN1C1CCN(Cc2ccc(Cl)cc2/C(N)=N\O)CC1 [Compound 2] | < 25
CC[C@H]1CN(c2nc(N)c(-c3nnc(N)o3)nc2Cl)CCN1C1CCN(C(=O)c2ccc(Cl)nc2N)CC1 [Compound 17] | < 25
CC[C@H]1CN(c2nc(N)c(-c3nnc(C)o3)nc2Cl)CCN1C1CCN([C@@H](C(=O)OC)c2ccc(Cl)cc2)CC1 [Compound 61] | < 25
CC[C@H]1CN(c2nc(N)c(-c3nnc(C)o3)nc2Cl)CCN1C1CCN(Cc2ccc(Cl)cc2/C(N)=N\O)CC1 [Compound 1] | < 25
CCNc1nnc(-c2nc(Cl)c(N3CCN(C4CCN(C(=O)c5ccc(Cl)nc5N)CC4)[C@@H](CC)C3)nc2N)o1 [Compound 14] | < 25
CC[C@H]1CN(c2nc(N)c(-c3nnc(NCC(=O)OC)o3)nc2Cl)CCN1C1CCN(C(=O)c2ccc(Cl)nc2N)CC1 [Compound 26] | < 25
CCNC(=O)Nc1nnc(-c2nc(Cl)c(N3CCN(C4CCN(C(=O)c5ccc(Cl)nc5N)CC4)[C@@H](CC)C3)nc2N)o1 [Compound 42] | < 25
CC[C@H]1CN(c2nc(N)c(C3=NCCN3)nc2Cl)CCN1C1CCN(C(=O)c2ccc(Cl)nc2N)CC1 [Compound 24] | < 25
CC[C@H]1CN(c2nc(N)c(-c3nnc(NCCO)o3)nc2Cl)CCN1C1CCN(C(=O)c2ccc(Cl)nc2N)CC1 [Compound 41] | < 25
CC[C@H]1CN(c2nc(N)c(-c3nnc(C(=O)NC4CC4)o3)nc2Cl)CCN1C1CCN(C(=O)c2ccc(Cl)nc2N)CC1 [Compound 73] | 25 to 100
CC[C@H]1CN(c2ncc(-c3nc[nH]n3)nc2C)CCN1C1CCN(C(=O)c2ccc(Cl)cc2)CC1 [Compound 49] | < 25
CC[C@H]1CN(c2nc(N)c(-c3nnc(N)o3)nc2Cl)CCN1C1CCN(Cc2ccc(Cl)nc2)CC1 [Compound 15] | < 25
CC[C@H]1CN(c2nc(N)c(-c3nnc(C)o3)nc2Cl)CCN1C1CCN(C(=O)c2cc(F)c(Cl)nc2N)CC1 [Compound 19] | < 25
CC[C@H]1CN(c2nc(N)c(-c3nnc(N)[nH]3)nc2Cl)CCN1C1CCN(C(=O)c2ccc(Cl)nc2N)CC1 [Compound 30] | < 25
CCNc1nnc(-c2cnc(N3CCN(C4CCN(C(=O)c5ccc(Cl)nc5N)CC4)[C@@H](CC)C3)c(C)n2)s1 [Compound 13] | < 25
CC[C@H]1CN(c2nc(N)c(-c3nnc(C(F)(F)F)o3)nc2Cl)CCN1C1CCN(Cc2ccc(Cl)cc2)CC1 [Compound 59] | < 25
CC[C@H]1CN(c2ncc(-c3nnc(C)o3)nc2C)CCN1C1CCN(C(=O)c2ccc(C#N)cc2)CC1 [Compound 64] | < 25

Results, then the compound that gave them:

IC50 [nM] | SMILES
< 25 | CCNc1nnc(-c2cnc(N3CCN(C4CCN(C(=O)c5ccc(Cl)cc5)CC4)[C@@H](CC)C3)c(CC)n2)o1 [Compound 158]
< 25 | CCNc1nnc(-c2cnc(N3CCN(C4CCN(C(=O)c5ccc(Cl)c(C)c5)CC4)[C@@H](CC)C3)c(C)n2)o1 [Compound 155]
< 25 | CC[C@H]1CN(c2ncc(-c3nnc[nH]3)nc2C)CCN1C1CCN(Cc2ccc(F)cc2)CC1 [Compound 105]
< 25 | CC[C@H]1CN(c2nc(N)c(-c3nnc(NC)o3)nc2Cl)CCN1C1CCN(C(C(=O)OC)c2ccc(Cl)cc2)CC1 (some centres unmarked) [Compound 190]
< 25 | CCNc1nnc(-c2cnc(N3CCN(C4CCN(Cc5ccc(F)cc5)CC4)[C@@H](CC)C3)c(C)n2)o1 [Compound 117]
< 25 | CCNc1nnc(-c2cnc(N3CCN(C4CCN(C(C(=O)OC)c5ccc(Cl)cc5)CC4)[C@@H](CC)C3)c(C)n2)o1 (some centres unmarked) [Compound 182]
25 to 100 | CC[C@H]1CN(c2ncc(-c3nnc[nH]3)nc2C)[C@H](C)CN1C1CCN(C(=O)c2ccc(Cl)cc2)CC1 [Compound 118]
< 25 | CC[C@H]1CN(c2ncc(-c3nc[nH]n3)nc2C)CCN1C1CCN(C(=O)c2ccc(Cl)c(F)c2)CC1 [Compound 125]
> 100 | CC[C@H]1CN(c2nc(N)c(-c3n[nH]c(=O)o3)nc2Cl)CCN1C1CCN(Cc2ccc(Cl)cc2)CC1 [Compound 87]
> 100 | CCOC(=O)c1nnc(-c2nc(Cl)c(N3CCN(C4CCN(C(=O)c5ccc(Cl)nc5N)CC4)[C@@H](CC)C3)nc2N)o1 [Compound 81]
< 25 | CCNc1nnc(-c2nc(C)c(N3CCN(C4CCN(C(=O)c5ccc(Cl)nc5N)CC4)[C@@H](CC)C3)nc2N)o1 [Compound 174]
< 25 | CCNc1nnc(-c2cnc(N3C[C@H](CC)N(C4CCN(C(=O)c5ccc(Cl)cc5)CC4)C[C@H]3C)c(C)n2)o1 [Compound 96]
< 25 | CC[C@H]1CN(c2ncc(-c3nnc(NC(C)C)o3)nc2C)CCN1C1CCN(C(=O)c2ccc(Cl)nc2N)CC1 [Compound 171]
< 25 | CCNc1nnc(-c2cnc(N3CCN(C4CCN(C(=O)c5ccc(C(F)(F)F)cc5N)CC4)[C@@H](CC)C3)c(C)n2)o1 [Compound 183]
25 to 100 | CC[C@H]1CN(c2nc(N)c(-c3nnc(C)o3)nc2Cl)CCN1C1CCN(C(=O)c2ccc(Cl)cc2NC(=O)C(F)(F)F)CC1 [Compound 74]
< 25 | CC[C@H]1CN(c2ncc(C3=NCCN3)nc2C)[C@H](C)CN1C1CCN(C(=O)c2ccc(Cl)cc2)CC1 [Compound 116]
< 25 | CCNc1nnc(-c2cnc(N3C[C@H](CC)N(C4CCN(Cc5ccc(F)cc5)CC4)C[C@H]3C)c(C(F)(F)F)n2)o1 [Compound 179]
25 to 100 | CCNc1nnc(-c2cnc(N3C[C@H](CC)N(C4CCN(C(=O)c5ccc(OC)cc5)CC4)C[C@H]3C)c(C)n2)o1 [Compound 152]
> 100 | CC[C@H]1CN(c2nc(NC(C)=O)c(-c3nnc(C)o3)nc2Cl)CCN1C1CCN(Cc2ccc(Cl)cc2)CC1 [Compound 90]
< 25 | CC[C@H]1CN(c2ncc(-c3ncc[nH]3)nc2C)CCN1C1CCN(Cc2ccc(OC(F)(F)F)cc2)CC1 [Compound 135]
< 25 | CCNc1nnc(-c2cnc(N3CCN(C4CCN(C(=O)c5ccc(Cl)cc5F)CC4)[C@@H](CC)C3)c(C)n2)o1 [Compound 165]
25 to 100 | CC[C@H]1CN(c2nc(N)c(-c3nnc(N)o3)nc2Cl)CCN1C1CCN(C(=O)c2ccc(OC(F)(F)F)cc2)CC1 [Compound 76]
> 100 | CC[C@H]1CN(c2nc(N)c(-c3nnc(C)o3)nc2Cl)CCN1C1CCN(Cc2cnc(N)nc2)CC1 [Compound 95]
25 to 100 | CC[C@H]1CN(c2nc(N)c(-c3nnc(NCC(N)=O)o3)nc2Cl)CCN1C1CCN(C(=O)c2ccc(Cl)nc2N)CC1 [Compound 75]
< 25 | CCNc1nnc(-c2cnc(N3CCN(C4CCN(C(=O)c5cc(F)c(Cl)cc5F)CC4)[C@@H](CC)C3)c(Cl)n2)o1 [Compound 187]
> 100 | CC[C@H]1CN(c2nc(O)c(-c3nnc(C)o3)nc2Cl)CCN1C1CCN(C(=O)c2ccc(Cl)cc2)CC1 [Compound 89]

Source: patent publication US7868006B2, “Heterocyclic substituted piperazines with CXCR3 antagonist activity” (Schering Corporation, priority 2005, dated 2011)
